Source: patent publication US6365626B1, “BTK inhibitors and methods for their identification and use” (Parker Hughes Institute, priority 1998, dated 2002)

Target: T1, BTK (Homo sapiens, UniProt Q06187)
T1 construct: expressed in transfected cells
Experiment: BTK inhibition assay of second generation LFM analogs
Format: biochemical
Conditions: Table 4

T1 sequence (Q06187 2-659): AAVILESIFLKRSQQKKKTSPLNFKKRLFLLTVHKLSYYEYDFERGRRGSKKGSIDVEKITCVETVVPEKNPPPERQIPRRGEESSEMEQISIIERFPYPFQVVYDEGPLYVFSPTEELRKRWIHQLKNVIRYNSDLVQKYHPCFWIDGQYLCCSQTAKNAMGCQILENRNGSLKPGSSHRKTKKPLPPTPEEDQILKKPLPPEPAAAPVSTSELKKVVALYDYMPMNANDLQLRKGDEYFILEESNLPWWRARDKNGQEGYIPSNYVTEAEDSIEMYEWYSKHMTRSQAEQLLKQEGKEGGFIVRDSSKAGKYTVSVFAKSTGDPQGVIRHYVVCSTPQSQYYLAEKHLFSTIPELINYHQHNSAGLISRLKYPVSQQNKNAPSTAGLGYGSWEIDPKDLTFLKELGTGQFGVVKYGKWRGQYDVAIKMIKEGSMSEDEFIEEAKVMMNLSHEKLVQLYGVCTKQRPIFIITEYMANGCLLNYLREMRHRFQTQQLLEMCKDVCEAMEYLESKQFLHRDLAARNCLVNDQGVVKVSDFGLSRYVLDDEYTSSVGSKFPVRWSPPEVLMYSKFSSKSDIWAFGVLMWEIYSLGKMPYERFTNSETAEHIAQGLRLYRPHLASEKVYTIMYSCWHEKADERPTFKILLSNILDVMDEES

IC50: 37 µM
Compound: CC(O)=C(C#N)C(=O)Nc1ccc(Cl)cc1Cl [LFM-A20, α-Cyano-β-hydroxy-β-methyl-N-(2,4-dichlorophenyl)propenamide]
